Laboratory results as given in ChEMBL document CHEMBL1201862, “PubChem BioAssay data set” (2004).
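Tested at 5 concentrations; 48 h exposure; 96-well plates; endpoints linearly interpolated, else capped at highest concentration. The concentration for 50% growth inhibition is given as GI50.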 Activity calls are given as the source filed them. Cut-off read from the data, not from the text of the source: active = GI50 up to about 1.1 µM and inactive = higher.

What was measured:
Test in all cases: growth of human tumour cells (NCI), 48 h
[1] = tested on: NCI-H226
[2] = tested on: A549
[3] = tested on: SN12C
[4] = tested on: SR
[5] = tested on: HCT-15
[6] = tested on: SK-MEL-28
[7] = tested on: OVCAR-8
[8] = tested on: SF-295
[9] = tested on: KM12
[10] = tested on: NCI-H460
[11] = tested on: Malme-3M
[12] = tested on: SK-MEL-5
[13] = tested on: UACC-62
[14] = tested on: COLO 205
[15] = tested on: OVCAR-4
[16] = tested on: ACHN
[17] = tested on: RPMI-8226

Compound | GI50 [1] | GI50 [2] | GI50 [3] | GI50 [4] | GI50 [5] | GI50 [6] | GI50 [7] | GI50 [8] | GI50 [9] | GI50 [10] | GI50 [11] | GI50 [12] | GI50 [13] | GI50 [14] | GI50 [15] | GI50 [16] | GI50 [17]
CC[P+]1(c2ccccc2)CCCCC1 | > 100 µM (inactive) | > 100 µM (inactive) | > 100 µM (inactive) | > 100 µM (inactive) | > 100 µM | > 100 µM (inactive) | > 100 µM (inactive) | > 100 µM (inactive) | > 100 µM (inactive) | > 100 µM (inactive) | > 100 µM (inactive) | > 100 µM (inactive) | > 100 µM (inactive) | > 100 µM (inactive) | > 100 µM (inactive) | > 100 µM (inactive) | > 100 µM (inactive)
CCCCCCCCCCCCCS(=O)(=O)NCC(N)=O | > 100 µM (inactive) | > 100 µM (inactive) | > 100 µM (inactive) | – | > 100 µM | > 100 µM (inactive) | > 100 µM (inactive) | > 100 µM (inactive) | > 100 µM (inactive) | > 100 µM (inactive) | > 100 µM (inactive) | > 100 µM (inactive) | > 100 µM (inactive) | > 100 µM (inactive) | > 100 µM (inactive) | > 100 µM (inactive) | –
BrC(Br)([P+](c1ccccc1)(c1ccccc1)c1ccccc1)[P+](c1ccccc1)(c1ccccc1)c1ccccc1 | 20.3 µM (inactive) | 26.3 µM (inactive) | 22.7 µM (inactive) | 14 µM (inactive) | 20.4 µM | 16.6 µM (inactive) | 13.1 µM (inactive) | 29.4 µM (inactive) | – | 22.8 µM (inactive) | 12.5 µM (inactive) | 15.9 µM (inactive) | 14.6 µM (inactive) | 16.4 µM (inactive) | 12.1 µM (inactive) | 17.7 µM (inactive) | 6.87 µM (inactive)
CC1=C(C(=O)CC(=O)C(=O)Nc2cccc(C)c2C)Sc2ccccc2N1 | > 100 µM (inactive) | > 100 µM (inactive) | > 100 µM (inactive) | – | > 100 µM | > 100 µM (inactive) | > 100 µM (inactive) | > 100 µM (inactive) | > 100 µM (inactive) | > 100 µM (inactive) | > 100 µM (inactive) | > 100 µM (inactive) | > 100 µM (inactive) | – | > 100 µM (inactive) | > 100 µM (inactive) | > 100 µM (inactive)
CCCC(C(=O)OC)C1N/C(=N/C#N)N(Cc2ccccc2)C1=O (stereo not drawn) | – | > 100 µM (inactive) | > 100 µM (inactive) | 91.2 µM (inactive) | > 100 µM | > 100 µM (inactive) | > 100 µM (inactive) | > 100 µM (inactive) | > 100 µM (inactive) | > 100 µM (inactive) | > 100 µM (inactive) | > 100 µM (inactive) | > 100 µM (inactive) | > 100 µM (inactive) | > 100 µM (inactive) | > 100 µM (inactive) | > 100 µM (inactive)
O=C(c1ccccc1)c1c(C(=O)c2ccccc2)c(-c2ccccc2)c2c(-c3ccccc3)sc(-c3ccccc3)c2c1-c1ccccc1 | > 100 µM (inactive) | > 100 µM (inactive) | > 100 µM (inactive) | – | > 100 µM | > 100 µM (inactive) | > 100 µM (inactive) | > 100 µM (inactive) | > 100 µM (inactive) | > 100 µM (inactive) | > 100 µM (inactive) | > 100 µM (inactive) | > 100 µM (inactive) | > 100 µM (inactive) | > 100 µM (inactive) | > 100 µM (inactive) | > 100 µM (inactive)
COC(=N)/C(=C1\OC(=N)C(c2ccc(Cl)cc2)=C1O)c1ccc(Cl)cc1 | > 100 µM (inactive) | > 100 µM (inactive) | > 100 µM (inactive) | > 100 µM (inactive) | > 100 µM | > 100 µM (inactive) | > 100 µM (inactive) | > 100 µM (inactive) | > 100 µM (inactive) | > 100 µM (inactive) | > 100 µM (inactive) | > 100 µM (inactive) | > 100 µM (inactive) | > 100 µM (inactive) | > 100 µM (inactive) | > 100 µM (inactive) | 81.8 µM (inactive)
N=C(N)NS(=O)(=O)c1ccc(NC(=O)c2cccc3c(N)c4ccccc4nc23)cc1 | > 100 µM (inactive) | > 100 µM (inactive) | > 100 µM (inactive) | – | > 100 µM | > 100 µM (inactive) | > 100 µM (inactive) | > 100 µM (inactive) | 8.57 µM (inactive) | > 100 µM (inactive) | > 100 µM (inactive) | > 100 µM (inactive) | > 100 µM (inactive) | > 100 µM (inactive) | > 100 µM (inactive) | > 100 µM (inactive) | > 100 µM (inactive)
COc1ccccc1N1C(=O)C2c3[nH]c4ccccc4c3C3CCC(C(C)(C)C)CC3C2C1=O (stereo not drawn) | > 100 µM (inactive) | > 100 µM (inactive) | > 100 µM (inactive) | 97.1 µM (inactive) | > 100 µM | > 100 µM (inactive) | > 100 µM (inactive) | > 100 µM (inactive) | – | – | > 100 µM (inactive) | > 100 µM (inactive) | > 100 µM (inactive) | > 100 µM (inactive) | > 100 µM (inactive) | > 100 µM (inactive) | > 100 µM (inactive)
